Assays:
[1] = target: T1, folate receptor (FR) on KB cells (Homo sapiens, UniProt P15328); assay: Concentration-dependent cell uptake (Scatchard analysis); type: binding; details: 2 hours at 37° C.
T1 construct: FR-positive KB cells were gently trypsinized; endogenous in cells; host or cells: KB cells
Protocol: KB cells were seeded in 12-well Falcon plates and allowed to form sub-confluent monolayers overnight. Following one rinse with 1 mL of fresh FERPMI/HIFCS, each well received 1 mL of FFRPMI/HIFCS containing increasing concentrations of ^99mTc-EC20. Cells were incubated for 2 hours at 37° C. and then rinsed four times with 1 mL of ice-cold PBS, pH 7.4. The monolayers were dissolved in 0.5 mL of PBS, pH 7.4 containing 1% sodium dodecyl sulfate for 15 min at room temperature and then counted for radioactivity using a Packard gamma counter. Protein content was determined as described above, and final tabulated values were expressed in terms of molecules of EC20 per cell.
The particular KB cells used were determined to bind a maximum of four million molecules of the folate radiopharmaceutical per cell.
This HPLC-purified radiolabeled material (Peak B material) was collected and then added to cultured KB cells.

[2] = Blood clearance; type: in vivo, Balb/c mice
Protocol: Animals used for this study were maintained on a folate-free diet (Harlan #TD-90261) for approximately three weeks prior to dose administration. […] Furthermore, previous studies have shown that mice placed on a folate-free diet for 3 weeks had maintained a safe serum folate level of 25±7 nM, which is slightly higher than the 9-14 nM concentration measurable in human serum.
The ^99mTc-EC20 solution was prepared on the day of use and had initially contained 100 μg of EC20 per milliliter. The solution was further diluted with sterile saline to prepare working stock solutions. The radiochemical purity of the product was estimated to be ˜94% by TLC. Each animal received a dose of 50 μg/kg EC20 (67 nmol/kg) in approximately 0.1 mL volume i.v. via the tail vein during brief diethyl ether anesthesia. At the designated times (see FIG. 8) post-injection, each animal was euthanized by CO2 asphyxiation, and blood was immediately collected by cardiac puncture.

[3] = test system: FR-positive M109 tumors; assay: Tissue distribution, subcutaneous M109 tumors (Example 11)
Protocol: The ability of ^99mTc-EC20 to target tumors in vivo was assessed using a FR-positive M109 model.
Four to five week-old mice (Balb/c strain) were purchased from Harlan Sprague Dawley, Inc. (Indianapolis, Ind.) and were maintained on a folate-free diet for a total of three weeks prior to the experiment. Syngeneic, FR-positive M109 tumor cells (1×10^6 per animal) were inoculated in the subcutis of the right axilla two weeks prior to the experiment.
Animals received an approximate 40 μmol/kg i.v. dose of test article in 100 μL volume via a lateral tail vein during brief diethyl ether anesthesia. Four hours post-injection, animals were sacrificed by CO2 asphyxiation, and dissected. Selected tissues were removed, weighed, and counted to determine ^99mTc distribution. CPM values were decay-corrected, and results were tabulated as % injected dose per gram of wet weight tissue.

[4] = Serum protein binding (ultrafiltration), human serum; type: in vitro ADME; details: room temperature, ultrafiltration 30,000 NMWL
Protocol: Fresh rat serum, and commercial male human serum (type AB donors, Sigma Chemical Co.) were used to evaluate in vitro binding of ^99mTc˜EC20 to serum proteins. One minute after ^99mTc-EC20 was mixed with 1 mL of serum at room temperature, 0.3 mL of the serum solution was transferred to a clean Amicon Centrifree® ultrafiltration device (30,000 NMWL) in triplicate. Within one minute of loading the centrifuge with the serum solution, the device was spun at 1000×g for 20 minutes at 20° C. 50 μL samples of the original solution, and of the filtrate from each device, was transferred to a clean tube and counted in an automatic gamma counter. A control solution of ^99mTc˜EC20 mixed with 1 mL of normal saline was ultrafiltered in an identical fashion. The percentage of free ^99mTc was calculated for each of the three samples.

[5] = test system: FR-positive M109 and FR-negative 4T1 tumors; assay: Tissue distribution, M109 and 4T1 tumor models (Example 15); type: in vivo, Balb/c mice; details: four hours post i.v. injection
Protocol: The protocols used in this example are similar to those described in Example 11.
Syngeneic, FR-positive M109 tumor cells (2×10^6 Po per animal) or FR-negative 4T1 cells (5×10^5 Po per animal) were inoculated subcutaneously in 100 μl of folate-free RPMI-1640 containing 1% syngeneic mouse serum.
Sixteen days after tumor cell inoculation, the animals were injected intravenously with 500 or 1800 nmoles/kg of EC20 for M109 tumor-bearing animals and 500 nmoles/kg of EC20 for 4T1 tumor-bearing animals (3 mice per dose group). All injections were in 100 μl volumes. […] Selected tissues (heart, lungs, liver, spleen, kidney, intestines, stomach, muscle, and tumor) were removed, weighed, and counted in an automatic gamma counter to determine ^99mTc distribution. Uptake of the radiopharmaceutical in terms of percentage injected dose of wet weight tissue (% ID/g) was calculated by reference to standards prepared from dilutions of the injected preparation.

[6] = 4 hr post i.v., + Folic acid (100 equivalents)
[7] = 4 hr post intravenous injection

T1 sequence (P15328 25-234): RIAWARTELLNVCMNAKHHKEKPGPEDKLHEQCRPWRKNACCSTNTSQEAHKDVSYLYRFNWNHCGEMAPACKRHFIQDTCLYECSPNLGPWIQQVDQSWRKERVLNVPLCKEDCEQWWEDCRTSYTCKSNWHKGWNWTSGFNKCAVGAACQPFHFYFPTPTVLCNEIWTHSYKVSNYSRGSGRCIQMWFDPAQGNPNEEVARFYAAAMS

**Q.** Which “maximum molecules bound per cell” value [1] does the source give for `[NH-][C@@H](CNC(=O)CC[C@@H](NC(=O)c1ccc(NCc2cnc3nc(N)[nH]c(=O)c3n2)cc1)C(=O)O)C(=O)[N-][C@@H](CC(=O)O)C(=O)[N-][C@@H](C[S-])C(=O)O.[O]=[Tc+4]` [^99mTc-EC20] here?
**A.** Its value is “four million”.

**Q.** And the Kd ([1]; read-out: KD of binding (Scatchard analysis))?
**A.** The Kd was 3.2 nM.

**Q.** What about the plasma half life ([2]; 50 μg/kg EC20 i.v., Balb/c mouse) of the same compound?
**A.** The plasma half life was about 4 min.

**Q.** And the “injected dose remaining in circulation” value ([2]; after four hours, blood assumed 5.5% of body mass)?
**A.** The value was “less than 0.2%”.

**Q.** And the Blood [3, 6]?
**A.** Its Blood is 0.09 ± 0.02 % Injected Dose per Gram Tissue.

**Q.** What about the Heart [3, 6] of the same compound?
**A.** The Heart was 0.08 ± 0.01 % Injected Dose per Gram Tissue.

**Q.** And the Intestine [3, 6]?
**A.** Its Intestine is 2.93 ± 1.49 % Injected Dose per Gram Tissue.

**Q.** And the Kidney [3, 6]?
**A.** The Kidney was 5.64 ± 2.13 % Injected Dose per Gram Tissue.

**Q.** What about the Liver [3, 6] of the same compound?
**A.** The Liver was 1.15 ± 0.22 % Injected Dose per Gram Tissue.

**Q.** And the Lung [3, 6]?
**A.** The Lung was 0.31 ± 0.26 % Injected Dose per Gram Tissue.

**Q.** And the Muscle [3, 6]?
**A.** The Muscle was 0.06 ± 0.02 % Injected Dose per Gram Tissue.

**Q.** And the Spleen [3, 6]?
**A.** Its Spleen is 0.38 ± 0.33 % Injected Dose per Gram Tissue.

**Q.** What about the Stomach [3, 6] of the same compound?
**A.** The Stomach was 3.35 ± 5.19 % Injected Dose per Gram Tissue.

**Q.** And the Tumor [3, 6]?
**A.** The Tumor was 0.45 ± 0.18 % Injected Dose per Gram Tissue.

**Q.** What about the Tumor/Blood [3, 6] of the same compound?
**A.** Its Tumor/Blood is 4.70 ± 1.30.

**Q.** What about the Blood [3, 7] of the same compound?
**A.** The Blood was 0.34 ± 0.03 % Injected Dose per Gram Tissue.

**Q.** What about the Heart [3, 7] of the same compound?
**A.** Its Heart is 1.57 ± 0.26 % Injected Dose per Gram Tissue.

**Q.** What about the Intestine [3, 7] of the same compound?
**A.** Its Intestine is 2.56 ± 0.61 % Injected Dose per Gram Tissue.

**Q.** And the Kidney [3, 7]?
**A.** Its Kidney is 138 ± 12.4 % Injected Dose per Gram Tissue.

**Q.** What about the Liver [3, 7] of the same compound?
**A.** The Liver was 3.56 ± 0.25 % Injected Dose per Gram Tissue.

**Q.** What about the Lung [3, 7] of the same compound?
**A.** Its Lung is 2.22 ± 0.63 % Injected Dose per Gram Tissue.

**Q.** What about the Muscle [3, 7] of the same compound?
**A.** Its Muscle is 0.67 ± 0.20 % Injected Dose per Gram Tissue.

**Q.** What about the Spleen [3, 7] of the same compound?
**A.** The Spleen was 0.95 ± 0.15 % Injected Dose per Gram Tissue.

**Q.** What about the Stomach [3, 7] of the same compound?
**A.** The Stomach was 1.45 ± 0.55 % Injected Dose per Gram Tissue.

**Q.** And the “associated with the >30 kDa serum protein fraction” value [4]?
**A.** The value was 72%.

**Q.** What about the “uptake in FR-negative 4T1 tumors lower than in FR-positive M109 tumors” value [5] of the same compound?
**A.** The value was 7.6 fold.

**Q.** What about the “uptake in normal tissues, except kidney” value [5] of the same compound?
**A.** Its value is “low”.

Reference: patent US7862798B2, “Vitamin-targeted imaging agents” (Endocyte, Inc., priority 2002, dated 2011)
